For one test, the system named is BALB/c mice. The test is described as follows: ELISA for anti-peptide antibody response after immunization. As to conditions: high molecular weight forms. On the technique in general: In an ELISA, binding on a coated surface is turned into a signal by an enzyme label.
The format of test [1] is in vivo, Balb/c mice. As to conditions: helper T-cell peptide injected alone.
For test [2], the system named is HIV-1 infected CCRF-CEM and uninfected Molt-4 cells. Particulars: cited from earlier work.
The test system of the next test is PLN cells. Kind of test: In vitro proliferation of PLN cells (3H-TdR incorporation) after footpad immunization. It is filed as in vivo, B6C3 F1 mice. As to conditions: disulfide (di-Cys) polymeric form; summary of mouse studies. The method, then:
The high molecular weight, multimeric di-Cys peptide polymeric forms of the peptides described in EXAMPLE 1 were assayed for their elicitation of a T cell proliferative response as in Millich et al. (1985).
FIGURES 2-5 illustrate the peptide-specific ^3H-TdR incorporation for T cell responses (delta cpm) in mice with differing major histocompatibility (MHC) haplotypes, B6C3 F1 (C57B1/6xC^3H/HcJ) mice (FIGURES 2 and 4) and (A.SWxBALB/c) F1 mice (FIGURES 3 and 5), for all of the synthetic peptides. The ^3H-TdR incorporation values represent the difference between the radioactivity values obtained in wells containing antigen and in control wells without added antigen. The non-specific proliferation of PLN cells was determined by including an unrelated peptide in the assays, shown as a horizontal bar for each peptide.

In a further test the test system is PBMC. Kind of test: PBMC proliferation after immunization with a mixture of eight synthetic peptides. It is filed as in vivo, rhesus monkeys. Also noted: key to T-cell Proliferation Responses, Rhesus Monkey #7 / T-cell Proliferation Responses, Rhesus Monkey #23 / T-cell Proliferation Responses, Rhesus Monkey #283C: (-), no detectable response; (1+), poor response; (2+), good response; (3+), better response; (4+, 6+), best response; (4+, 6+), best response. As to conditions: for T-cell Proliferation Responses, Rhesus Monkey #7 / T-cell Proliferation Responses, Rhesus Monkey #23 / T-cell Proliferation Responses, Rhesus Monkey #283C: PBMC response to the individual antigen after immunization with mixture of eight peptides; for proliferative responses of PBMCs (in words): three rhesus monkeys immunized with mixture of eight peptides. The method, then:
In the present studies, three rhesus monkeys (#7, #23 and #283C) were immunized subcutaneously with 1 ml (0.1 ml/site) of a mixture of eight synthetic peptides (300 µg of each peptide in sterile water) emulsified in complete Freund's adjuvant at 1:1 ratio. […] At 3 and 7 weeks after the primary immunization, two booster injections of the peptide mixture (150 µg of each peptide in sterile water) emulsified in incomplete Freund's adjuvant were given to each monkey. Monkey #7 was terminated after 34 weeks, for health reasons unrelated to the study, while the remaining two monkeys (#283C and #23) received one additional booster injection at 25 weeks.
At two week intervals following the first immunization of each animal, 15 ml of whole heparinized blood was collected by venous puncture. The peripheral blood mononuclear cells (PBMC) were separated by standard ficoll-hypaque centrifugation and employed in proliferation assays. The PBMCs were monitored every two weeks for a period of 32 weeks for proliferative responses against individual peptides and recombinant gp160.

Another test deals with HIV-1 IIIB. Kind of test: Effect of V3 loop peptides on HIV-1 IIIB infection of human cells (RT activity). Particulars: No Peptide 7528, Uninfected cells 558. It is filed as cell-based. The text has this:
As detailed in TABLE 11A, these peptides include D23, D24, D25, D26, D30, D35, D38, D39, D40 and D44, which reflect a variety of strains such as mn, rf, wmj-3, sc, z6, eli, mn (y-l) and mn (y-p). However, it is important to note that this assay was confined specifically to inhibiting the infection of the heterologous strain HIV-1 IIIB. […]

Another test concerns P815. As to conditions: […]; same immunization protocol.
Test [3] relates to envelope protein gp160 of HIV-1 IIIB, mn or rf strains. It is filed as cell-based.
For a further test, the system named is HIV-1. Format: cell-based, HIV-1 IIIB. Particulars: 1 µg/ml; RT activity in culture supernatant after 9 days; IIIB strain.
A further test relates to 3A9. It is filed as in vivo, Balb/c mice. Particulars: effector cells: No Treatment, target 3A9 (H-2^k).

Entries after “also recorded” stand apart in the source; their conditions may differ. Like-named read-outs stand apart in the source and are kept apart here. Ends that are not written are not given here.

With CRIKQIINMWQGVGKAMYA [Peptide 65], in the test with BALB/c mice, the “anti-peptide antibody titers (in words)” value is given as “high antibody titers”. As to CRIKQIINMWQGVGKAMYA [Peptide 122], the CTL-inducing activity result in test [1] is recorded as “lacked CTL-inducing activity”. In the case of “CTRPNNNTRKSIRIQRGPGRAFVTIGKIGNMRQAHC [reference compound]”, the “inhibition of syncytium formation” value in [2] (100 µM (approximately 300 µg/ml)) is listed as 30-60%. As for FEPIPIHYCAFPGF [Peptide 114], in the test with BALB/c mice, the “anti-peptide antibody titers (in words)” value is listed as “high antibody titers”. As to FLGFLGAAGSTMGAASLTLTVQANQ [Peptide 63], the “anti-peptide antibody titers (in words)” value in the test on BALB/c mice is “very low to negligible; also recorded: do not stimulate anti-peptide antibody production”. For the same sequence, the “T cell response directed against both the corresponding peptide and native gp160” value (from here on “T cell response directed”) in the test with PLN cells is listed as “strong T cell response”. Besides, in the test on PBMC, the “T-cell Proliferation Responses, Rhesus Monkey #7” value is 2+; the “T-cell Proliferation Responses, Rhesus Monkey #23” value is 4+; the “T-cell Proliferation Responses, Rhesus Monkey #283C” value is 3+; the “proliferative responses of PBMCs (in words)” value (“proliferative responses” below) is “good proliferative responses”. With GIAIGPGRTLYAREK [Peptide D27], the “RT ACTIVITY (CPM)” value in the test on HIV-1 IIIB was determined as 7657 CPM.

As for GIHFGPGQALYTTGI [Peptide D33], the “RT ACTIVITY (CPM)” value in the test on HIV-1 IIIB is listed as 8959 CPM. Consider GTGPCTNVSTVQC [Peptide 116], for which the “anti-peptide antibody titers (in words)” value in the test with BALB/c mice was “very low to negligible”. Also, in the test on PBMC, the “T-cell Proliferation Responses, Rhesus Monkey #7” value is listed as 1+; the “T-cell Proliferation Responses, Rhesus Monkey #23” value is on record as 3+; the “T-cell Proliferation Responses, Rhesus Monkey #283C” value is 2+; the “proliferative responses” value is “weak responses”. GVPVWKEATTLFC [Peptide 105]: the “proliferative responses” value in the test with PBMC is on record as “A significant response was not detected”. As to “HGEFAPGNYPALWSYA [Peptide B105, reference compound]”, the “in vivo CTL response” value with P815 is on record as “successfully generated”.

With HIGPGRAFYTTKN [Peptide H13N], the syncytia result in test [3] was “no syncytia were observed”. The “inhibition of HIV-1 infection of primary human T cells” value (shortened to “inhibition … of primary human T cells”) in the test on HIV-1 is reported as over 60%. As to KKFNGTGPCTN [Peptide 115], the “anti-peptide antibody titers (in words)” value in the test on BALB/c mice is listed as “high antibody titers”.

As for LWDQSLKPCVKLT [Peptide 111], the “anti-peptide antibody titers (in words)” value in the test with BALB/c mice is reported as “very low to negligible”. In addition, in the test on PBMC, the “T-cell Proliferation Responses, Rhesus Monkey #7” value is on record as 3+; the “T-cell Proliferation Responses, Rhesus Monkey #23” value was 2+; the “T-cell Proliferation Responses, Rhesus Monkey #283C” value was 3+; the “proliferative responses” value is recorded as “good proliferative responses”. For NNTRKSIRIQRGPGRAFVTIGKIG [Peptide N24G], the “concentration required for inhibition of syncytium formation” value in [2] (to achieve the same level of inhibition (30-60%)) is on record as 300 µM. The “inhibition … of primary human T cells” value in the test with HIV-1 came to 92%.

Consider NNTRKSITKGPGRVIYATGQIIGD [Peptide D26], for which the “RT ACTIVITY (CPM)” value in the test on HIV-1 IIIB was found to be 2093 CPM. Still for that read-out and setting: the figure for RIHIGPGARFLTTKN [Peptide D39] is 1978 CPM; for RIHIGPGRAFFTTKN [Peptide D40] it is 2805 CPM. Same read-out and setting: as for RIHIGPGRAFYTTKN [Peptide D24], the figure is 5000 CPM.

With RTPTGLGQSLYTTRS [Peptide D38], the “RT ACTIVITY (CPM)” value with HIV-1 IIIB is on record as 5823 CPM. The same measure, in the same setting: as for RVTLGPGRVWYTTGE [Peptide D29], the figure is 13009 CPM; as for SIHIGPGRAFYATGD [Peptide D30], 3443 CPM; as for SIRIGPGKVFTAKGG [Peptide D31], 11877 CPM. Still for that read-out and setting: as for SISIGPGRAFFATTD [Peptide D34], the figure is 11142 CPM.

Consider SITKGPGRVIYATGQ [Peptide D28], for which, in the test with HIV-1 IIIB, the “RT ACTIVITY (CPM)” value is 7634 CPM.

Take SIYIGPGRAFHTTGR [Peptide D32]: the “RT ACTIVITY (CPM)” value with HIV-1 IIIB is 8002 CPM. Take SLKPCVKLTPLC [Peptide 112]: in the test with BALB/c mice, the “anti-peptide antibody titers (in words)” value was “high antibody titers”. As to SLSIGPGRAPRTREI [Peptide D25], the “RT ACTIVITY (CPM)” value in the test with HIV-1 IIIB came to 4342 CPM. For STPIGLGQALYTTRG [Peptide D35], the “RT ACTIVITY (CPM)” value in the test on HIV-1 IIIB amounted to 5242 CPM.

STPIGLGQALYTTRI [Peptide D37]: the “RT ACTIVITY (CPM)” value in the test on HIV-1 IIIB turned out to be 7027 CPM.

Consider SVITQACSKVSFE [Peptide 113], for which the “anti-peptide antibody titers (in words)” value in the test with BALB/c mice is listed as “very low to negligible; also recorded: do not stimulate anti-peptide antibody production”. In addition, in the test with PLN cells, the “T cell response directed” value is “strong T cell response”. Moreover, in the test on PBMC, the “T-cell Proliferation Responses, Rhesus Monkey #7” value is reported as 1+; the “T-cell Proliferation Responses, Rhesus Monkey #23” value was 2+; the “T-cell Proliferation Responses, Rhesus Monkey #283C” value was 2+; the “proliferative responses” value is reported as “weak responses”. As to TKGPGRVIYATGQ [Peptide T13Q], the syncytia result in [3] was “no syncytia were observed”. Also, the “inhibition … of primary human T cells” value in the test with HIV-1 is over 60%. As for “TYQRTRALVTG [Peptide B106, reference compound]”, the “% Specific Lysis” value with 3A9 (E:T 80:1) and in the test on 3A9 (E:T 160:1) was 0% throughout.

For VQCTHGIRPVVSTQ [Peptide 117], the “anti-peptide antibody titers (in words)” value in the test with BALB/c mice was “high antibody titers”.

Turning to VYYGVPVWKEA [Peptide 104], the “anti-peptide antibody titers (in words)” value in the test with BALB/c mice is recorded as “very low to negligible; also recorded: do not stimulate anti-peptide antibody production”. Besides, the “T cell response directed” value in the test on PLN cells is recorded as “strong T cell response”. In addition, in the test with PBMC, the “T-cell Proliferation Responses, Rhesus Monkey #7” value was 4+; the “T-cell Proliferation Responses, Rhesus Monkey #23” value is listed as 2+; the “T-cell Proliferation Responses, Rhesus Monkey #283C” value was 4+; the “proliferative responses” value was “good proliferative responses”. On to YLRDQQLLGIWGC [Peptide 61], for which the “anti-peptide antibody titers (in words)” value with BALB/c mice was “very low to negligible; also recorded: do not stimulate anti-peptide antibody production”. The “T cell response directed” value in the test on PLN cells is “strong T cell response”. In addition, in the test on PBMC, the “T-cell Proliferation Responses, Rhesus Monkey #23” value is given as 3+; the “T-cell Proliferation Responses, Rhesus Monkey #283C” value is 2+; the “proliferative responses” value is “Two of the three rhesus monkey-derived PBMC preparations also showed good proliferative responses”.

Regarding YNKRKRIHIGPGRAFYTTKNNIGC [Peptide D23], in the test with HIV-1 IIIB, the “RT ACTIVITY (CPM)” value was 94 CPM.

The values are drawn from patent EP0671947B1, “COMPOSITIONS FOR ELICITING CYTOTOXIC T-[…] AGAINST VIRUSES” (BOARD OF REGENTS THE UNIVERSITY OF TEXAS SYSTEM, priority 1991, dated 1993).
